Laboratory results as given in PubChem BioAssay (NCI).
“And” between values parts separate entries of the source, which are not always exact repeats. Equal values may be shown once.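 All cell lines were grown in 96-well plates and treated with compound for 48 hours. GI50 marks 50% less growth. TGI denotes the concentration required for complete inhibition of growth.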

Experiments:
Assay in all cases: NCI tumour cell line growth inhibition, 48 h
KM20L2 colon = test system: KM20L2 colon
DMS 114 small cell lung = test system: DMS 114 small cell lung
M19-MEL melanoma = test system: M19-MEL melanoma
LXFL 529 NSCLC = test system: LXFL 529 NSCLC
XF 498 CNS = test system: XF 498 CNS
SNB-78 CNS = test system: SNB-78 CNS
T-47D breast = test system: T-47D breast
MDA-N = test system: MDA-N
RXF-631 renal = test system: RXF-631 renal
P388/ADR leukemia = test system: P388/ADR leukemia
SN12K1 renal = test system: SN12K1 renal

Row | SMILES | TGI (KM20L2 colon) | TGI (DMS 114 small cell lung) | TGI (M19-MEL melanoma) | TGI (LXFL 529 NSCLC) [µM] | TGI (XF 498 CNS) | TGI (SNB-78 CNS) | TGI (T-47D breast) | TGI (MDA-N) [µM] | other results
1 | CSc1nnc2n1-c1ccccc1SCC2 | > 100 µM | > 100 µM | > 100 µM | > 100 | > 100 µM | > 100 µM |  |  | 
2 | O=C(O)c1cccc(F)c1C(=O)c1ccc2ccccc2c1 |  |  |  |  |  |  | > 100 µM | > 100 | 
3 | C=C1[C@@H]2CCC(C)(C)[C@H]1CCC(=O)[C@@H]2C(=O)OC | > 100 µM | > 100 µM | > 100 µM | > 100 | > 100 µM |  |  |  | TGI (RXF-631 renal): > 100 µM
4 | COc1ccc2c(C(=O)NCCCCCC(=O)O)cc3cc4c(cc3c2c1)OCO4 |  |  |  |  |  |  | > 100 µM |  | GI50 (T-47D breast): 80 µM
5 | COC(=O)c1cccc(COc2ccc([N+](=O)[O-])cc2Cl)c1 |  |  |  |  |  |  | > 100 µM |  | 
6 | CCOC(=O)/C(C#N)=C/c1[nH]c(C)c(C)c1C | > 100 µM | > 100 µM | > 100 µM | > 100 | > 100 µM | > 100 µM |  |  | 
7 | N[C@@H](Cc1ccc(N(CCCl)CCCl)cc1)C(=O)O | > 31.6 µM and 193 µM | 29.1 µM and 86.4 µM | 45.3 µM and 102 µM | 110 | 49.3 µM and 66.3 µM | 83.7 µM and 205 µM | > 100 µM and 116 µM | 126 | GI50 (KM20L2 colon): 14 µM; GI50 (T-47D breast): 34.3 µM; GI50 (DMS 114 small cell lung): 13 µM; GI50 (P388/ADR leukemia): 2.59 µM; TGI (P388/ADR leukemia): 37.7 µM and 76.3 µM; GI50 (M19-MEL melanoma): 15.9 µM; GI50 (XF 498 CNS): 20.9 µM and 22 µM; GI50 (SNB-78 CNS): 25.6 µM; GI50 (SN12K1 renal): 11.8 µM; TGI (SN12K1 renal): 60.5 µM and 102 µM
8 | COc1ccc2nc3c(cc2c1)C(=O)CC(C(F)(F)F)C3 (stereo not given) |  |  |  |  |  |  | > 100 µM |  | GI50 (T-47D breast): 3.7 µM
9 | Cc1nc(N(C)C)nc(-c2cccc(-c3ccn(CCN(C)C)n3)c2)c1C |  |  |  |  |  |  | > 20 µM |  | GI50 (T-47D breast): > 20 µM
10 | CCN(CC)CCCNc1c2cc(OC)ccc2nc2cccc([N+](=O)[O-])c12 |  |  |  |  |  |  | 0.618 µM | 0.277 | 
11 | COc1cc(Nc2nccc(-c3cnn4ncccc34)n2)cc(OC)c1 |  |  |  |  |  |  | 1.55 µM |  | GI50 (T-47D breast): 0.122 µM
12 | NCCCSCC(=O)O | > 100 µM | > 100 µM | > 100 µM | > 100 |  | > 100 µM |  |  | 
13 | Cc1cccc(C)c1NC(=O)/C(CC(=O)CC(c1ccccc1)c1c(O)c2ccccc2oc1=O)=N/O (stereo not given) |  |  |  |  |  |  |  | > 100 | 
14 | CCCCCCOc1ccc(/C=N/Nc2cc(C)nc3ccc(Br)cc23)cc1 |  |  |  |  |  |  | 3.72 µM |  | GI50 (T-47D breast): 1.82 µM
15 | C[C@]12CC[C@H](O)CC1CCC[C@@H]2O (stereo not given in full) |  | > 100 µM |  | > 100 | > 100 µM | > 100 µM |  |  | TGI (RXF-631 renal): > 100 µM
16 | COc1cccc(/C=N/[N-]C(N)=O)c1[O-].[Cu+2].c1ccncc1 | > 100 µM |  |  |  |  |  |  |  | 
17 | CC1(C)OC(=O)C(c2ccsc2)C(=O)O1 | > 100 µM | > 100 µM | > 100 µM | > 100 | > 100 µM | > 100 µM |  |  | TGI (RXF-631 renal): > 100 µM
18 | O=c1cc(/C=C/c2ccccc2)c2ccc(O/C(=C\c3ccccc3)c3nc4ccccc4c(=O)o3)cc2o1 | > 100 µM | 71.7 µM | 91 µM | 63.9 | 70.5 µM | 70.8 µM |  |  | TGI (RXF-631 renal): > 100 µM

Row | SMILES | TGI (KM20L2 colon) | TGI (DMS 114 small cell lung) | TGI (M19-MEL melanoma) | TGI (LXFL 529 NSCLC) [µM] | TGI (XF 498 CNS) | TGI (SNB-78 CNS) | TGI (T-47D breast) | TGI (MDA-N) [µM] | other results
19 | O=P1(NCCCl)OCCC(OO)N1CCCl (stereo not given) | > 100 µM | > 100 µM | > 100 µM |  |  | 86.7 µM | 17.7 µM | > 100 | 
20 | Cn1c(=O)ccc2cc(C(=O)c3ccccc3)ccc21 | > 100 µM | 81.1 µM | > 100 µM | > 100 | > 100 µM |  |  |  | TGI (RXF-631 renal): > 100 µM
21 | NC1=C(O)/C(=N/NS(=O)(=O)c2ccccc2)C(c2cccc(Cl)c2)O1 (stereo not given) | > 85.6 µM | 42.1 µM | > 57.2 µM | 35.8 |  | > 100 µM |  | 37.9 | 
22 | COc1ccc(/C=C/c2cnnc3ccccc23)cc1OC |  |  |  |  |  |  | > 10 µM | > 10 | 
23 | CCCCCCCCCCCCCCCc1nc(SCC(=O)O)n[nH]1 |  |  |  | 66.4 | > 100 µM | > 100 µM |  |  | TGI (RXF-631 renal): > 100 µM
24 | COc1ccc2c(c1)[n+](=O)c(C(=O)C/C(=N\NC(=O)C[N+](C)(C)C)C(=O)Nc1cc(Cl)ccc1Cl)c(C)n2O |  |  | > 100 µM | > 100 |  | > 100 µM |  |  | 
25 | Nc1c(C(=O)Nc2cccc3ccccc23)sc2nc3c(cc12)CCCCCC3 |  |  |  |  |  |  | > 50 µM |  | GI50 (T-47D breast): 25.1 µM
26 | COc1cc2c(cc1OC)-c1c(c3ccc([N+](=O)[O-])cc3c(=O)n1CCCBr)C2=O |  |  |  |  |  |  | > 100 µM |  | GI50 (T-47D breast): 0.731 µM
27 | CCCCCC(=O)OC[n+]1ccc(-c2c(COC(=O)NC(C)C)c(COC(=O)NC(C)C)c3n2CCC3)cc1 |  |  |  |  |  |  | > 100 µM | > 100 | 
28 | CN1CCN(C(=S)N(C(=O)c2ccc(Cl)cc2)C2CCCCC2)CC1 |  |  |  |  |  |  | > 100 µM | > 100 | 
29 | CC(=O)SC(C[N+](=O)[O-])c1ccccc1 (stereo not given) |  |  |  |  |  |  | > 71.3 µM | 9.77 | 
30 | CN(CC(=O)O)Cc1c[nH]c2ccccc12 |  |  |  |  |  |  |  | > 100 | 
31 | O=C1OC(=O)C2C1C1(c3ccccc3)OC2(c2ccccc2)c2c(Br)c(Br)c(Br)c(Br)c21 (stereo not given) | > 100 µM | > 100 µM | > 100 µM | > 100 | > 100 µM | > 100 µM |  |  | 
32 | Cn1c(=O)c2nc3sc4ccccc4c(=N)n3c2n(C)c1=O |  | > 100 µM | > 100 µM | > 100 | > 100 µM | > 100 µM |  |  | TGI (RXF-631 renal): > 100 µM
33 | Fc1cccc(C2SCc3nc4ccccc4n32)c1 (stereo not given) |  | > 100 µM | > 100 µM | > 100 |  | > 100 µM |  |  | TGI (RXF-631 renal): > 100 µM
34 | O=c1c2ccc(Br)cc2nc(-c2ccccc2)n1NC1OC(CO)C(O)C(O)C1O (stereo not given) | > 100 µM | > 100 µM | > 100 µM | > 100 | > 100 µM | > 100 µM |  |  | 
35 | COc1cc(C2C(C(=O)Nc3ccccc3C)=C(C)NC(C)=C2C(=O)Nc2ccccc2C)ccc1O | > 100 µM | > 100 µM | > 100 µM | > 100 | > 100 µM | > 100 µM |  |  | TGI (RXF-631 renal): > 100 µM
